The values that follow come from publication PMC5662717, “Angiotensin II-derived constrained peptides with antiplasmodial activity and suppressed vasoconstriction” (Scientific Reports, 2017).

Where a SMILES comes first, the peptide text is derived from it. Bridges are numbered along the chain shown (N, C = ends). Where no end group is shown, it is not given here.

One data set deals with stomach fundus. Also noted: species or system C57BL/6 J mice. The following applies: pH 7.4. As to the method:
The bioassay experiment was carried out in duplicate and generated equivalent results. Experiments were carried out using C57BL/6 J mice from the Centro de Desenvolvimento de Modelos Experimentais da Universidade Federal de São Paulo (CEDEME-UNIFESP).
Stomach fundus was isolated from each mouse, divided into two strips along the longitudinal muscle, and mounted into 5 mL organ baths containing modified Krebs-Ringer solution [144 mmol L^–1 NaCl, 5 mmol L^–1 KCl, 1.1 mmol L^–1 MgSO4, 25 mmol L^–1 NaHCO3, 1.1 mmol L^–1 NaH2PO4, 1.25 mmol L^–1 CaCl2, and 5.5 mmol L^–1 glucose at 37 °C (pH 7.4)] and were continuously carboxygenated (95% O2/5% CO2)[29]. Contractile responses to the stimulations with Ang II and analogs 1 and 2 (10^–8 mol L^–1) were measured with a TRI201 tension transducer (PanLab) through an amplifier (Powerlab 4/30). Data were collected through Labchart Pro V7 software. The resting tension was maintained at 0.5 g and the tissues were left to equilibrate for 90 min. The bath solution was frequently changed. The maximal effect was obtained by comparing contractile responses induced by carbachol (10^–8 mol L^–1).

The test system of the next data set is human red blood cells. It counts as cell-based. The note with it: for Hemolysis of red blood cells: red cells of human, 24 h, 1e-8 mol L^−1. The protocol:
Assessing toxicity is a key requirement for translating novel compounds into the clinic. Therefore, we evaluated the hemolytic activity of Ang II peptide derivatives 1 and 2 towards erythrocyte human cells. Erythrocytes were seeded in 96-well plates in the absence (negative control) or presence of 10^−8 mol L^−1 of the analogs, as described in the Methods Section.
Figure 3 Hemolytic assay of human red blood cells. Red blood cells were treated with distilled water which causes lysis of red blood cells; uninfected erythrocytes were kept in the same conditions used in the invasion assay with a control and each peptide tested (10^−8 mol L^−1), at 37 °C for 24 h. After incubation, the supernatant was collected, clarified at 900 g/8 min and the hemoglobin content was detected in a spectrophotometer at […]. **** denotes statistical significance of group compared with distilled water value p < 0.05.
The hemolytic effect of analogs 1 and 2 was determined in uninfected erythrocytes. Cells were maintained in the same culture conditions in the presence of 10^−8 mol L^−1 of peptides for 24 h. Erythrocytes were centrifuged at 900 g for 8 min. The free hemoglobin in the supernatant was monitored by spectrophotometer at 550 nm. Untreated cells were used as negative control to rule out nonspecific hemolysis. The hemolytic activity was expressed as a percentage of the control. This positive control (100% hemolysis) was prepared by treating the erythrocytes with distilled water.

Data set [1] has as its system Plasmodium gallinaceum sporozoites. Briefly: Effect of peptides on salivary gland-derived sporozoites (membrane permeability, propidium iodide fluorescence microscopy). In kind it is cell-based. The note with it: digitonin 40 μmol L–1 in PBS. The protocol: The effect of the peptides on sporozoites was determined in vitro by fluorescence microscopy. Briefly, the parasites were incubated for one hour in the presence of each peptide and the fluorophore propidium iodide, which stains dead and dying cells. The results are reported as the percent of fluorescent (i.e., inactivated) sporozoites. The analyses were carried out in triplicate, using three different mosquito batches (n = 9).
Aedes aegypti RED strain was used in experiments due to their hypersensitivity to P. gallinaceum parasite. Mosquitoes were reared using standard laboratory procedures. An aliquot of frozen chicken blood infected with the P. gallinaceum strain 8 A was obtained from A Krettli (René Rachou Institute of Research, FIOCRUZ, MG, Brazil). […]
Nine thousand P. gallinaceum mature sporozoites were pulled from the salivary glands of A. aegypti and incubated in 50 μL of PBS solution, with 40 μmol L^–1 digitonin (positive control), 60 μmol L^–1 peptides or negative control (PBS solution), at 37 °C for one hour. Cell membrane integrity was then observed using a Carl Zeiss inverted fluorescence microscope (model Observer Axio Vision A.1) coupled to an image capture Zeiss AxioCam HR digital camera (1,300 × 1,030 pixels resolution and 8-bit quantization) after addition of 1 μL of the propidium iodide aqueous solution (200 μmol L^–1) in 5 μL of total solution volume. […]

For data set [2] the test system is unchanged. The note with it: cited from earlier work; for Antiplasmodial activity against P. gallinaceum sporozoites, linear peptides: ref 12 (Silva et al.). An excerpt:
Silva et al.[12], tested several linear Ang II derivative peptides in vitro using both the P. gallinaceum sporozoite and the P. falciparum blood stage models. Two short peptides presented high antiplasmodial activity: YHPF and VIPF presented 89% and 94% activity against P. gallinaceum, respectively, and ~50% activity against erythrocyte invasion by P. falciparum. […] Analog 4 was designed via the removal of these two residues. Silva et al., studied linear peptides and observed that peptide DRVYHIPF had potent biological activity (94% against P. gallinaceum sporozoites). The sequence of peptide 1 is similar to that of Ang II, whereas peptide 2 presents a sequence that resembles Ang II with modifications in His and Ile residues (DRVYHIPF). Peptide 4, on the other hand, lacks Ile and His amino acid residues within its backbone. […] Peptide sequence CDRVCYIHPF[7] presented 76% (±3) antiplasmodial activity vs sporozoites of P. gallinaceum. Silva et al., studied different linear Ang II derivative peptides[12] and observed that when His and Ile residues are inverted, the antiplasmodial activity increased cf. peptides with the native primary sequence. To verify this observation, here we inverted the position of Ile and His residues in peptide 3. The resulting peptide presented increased antiplasmodial ...

The subject of data set [3] is Plasmodium falciparum. Briefly: Erythrocytic invasion assay (new ring formation) and IC50 determination. It counts as cell-based. The following applies: 10^−8 mol L^−1 peptide, 24 h, W2 strain, 2–3% parasitemia, 5% hematocrit; reduction versus untreated control, normalized. The protocol: The effect of peptides in the P. falciparum erythrocytic cycle was assayed in vitro against a synchronized culture in the schizont form of P. falciparum, maintaining 5% hematocrit and 2% parasitemia. Twenty-four hours after treatment, all peptides reduced new ring formation within erythrocytes at 10^−8 mol L^−1, which was described by Saraiva et al. as the ideal concentration for these inhibition assays. The tests were carried out in duplicate and a total of ten experiments were performed (n = 10). Data were normalized due to differences between controls from each assay. It was observed that three analogs reduced the number of rings formed in the blood stage, but only analogs 1 and 2 presented inhibition >40%, when compared to the untreated controls (Fig. 2B).
The erythrocytic cycle of Plasmodium falciparum was maintained in vitro by culturing W2 strains in 1640 medium, supplemented with A-type human blood and serum, as described by Saraiva et al.[15] […]
To synchronize the parasite cultures into the ring stage, we used a sorbitol solution (5%) according to Lambros and Vanderberg[28]. […] Invasion was evaluated by the appearance of new ring forms. The invasion percentage was determined by optical microscopy (1000x magnification), which represents the total number of cells infected by rings in 100 erythrocytes in at least ten random microscopic fields. […]

Another data set has as its system Plasmodium. The following applies: cited from earlier work; for Biological activity (antiplasmodial): ref 4 (Maciel et al.); for Antiplasmodial activity relative to Ang II (in words): lactam bridge analogs, ref 6 (Torres et al.). An excerpt: Three of these analogs (i.e., EDRKVYI ...
The test system of data set [4] is Plasmodium falciparum. The following applies: ref 12 (Silva et al.); cited from earlier work. An excerpt:
Table 1 Design of angiotensin II-derived synthetic peptides. Purity of peptides determined by LC/MS is shown, along with their respective antiplasmodial activity and design rationale. | column: Antiplasmodial activity vs P. falciparum (new ring formation%) || Silva et al.[12], tested several linear Ang II derivative peptides in vitro using both the P. gallinaceum sporozoite and the P. falciparum blood stage models. Two short peptides presented high antiplasmodial activity: YHPF and VIPF presented 89% and 94% activity against P. gallinaceum, respectively, and ~50% activity against erythrocyte invasion by P. falciparum. […] The authors observed that Ang II reduced by 47% reinfection caused by ring forms. Silva and colleagues tested linear Ang II derivatives using the same model and observed that two short peptides were capable of reducing parasite reinfection >50%[12]. In this work, we tested designer peptides using the P. falciparum erythrocytic cycle and observed that two peptides (1 and 2) were able to reduce ... || (+ 1 further places)

On to `CC[C@H](C)[C@@H]1NC(=O)[C@H](Cc2ccc(O)cc2)NC(=O)[C@H](C(C)C)NC(=O)[C@H](CCCNC(=N)N)NC(=O)[C@H](CC(=O)O)NC(=O)[C@@H](N)CSSC[C@@H](C(=O)O)NC(=O)[C@H](Cc2ccccc2)NC(=O)[C@@H]2CCCN2C(=O)[C@H](Cc2c[nH]cn2)NC1=O` [Peptide 1] (H-CDRVYIHPFC-OH; disulfide 1-10), for which the “Contractile response / vasoconstriction (in words)” value in the data set with stomach fundus was “complete suppression of vasoconstriction”. Further, in the data set on human red blood cells, the “Hemolytic effect (in words)” value is reported as “did not present hemolytic effects” and the “Hemolysis of red blood cells” value is reported as less than 6%.
Taken in the same sequence, the figures for `CC[C@H](C)[C@@H]1NC(=O)[C@H](Cc2c[nH]cn2)NC(=O)[C@H](Cc2ccc(O)cc2)NC(=O)[C@H](C(C)C)NC(=O)[C@H](CCCNC(=N)N)NC(=O)[C@H](CC(=O)O)NC(=O)[C@@H](N)CSSC[C@@H](C(=O)O)NC(=O)[C@H](Cc2ccccc2)NC(=O)[C@@H]2CCCN2C1=O` [Peptide 2] (H-CDRVYHIPFC-OH; disulfide 1-10) were “complete suppression of vasoconstriction”, “did not present hemolytic effects” and less than 6%.
In the case of `C[C@@H]1CC[C@@]2(OC1)O[C@H]1[C@@H](O)[C@H]3[C@@H]4CC[C@H]5C[C@@H](O[C@@H]6O[C@H](CO)[C@H](O[C@@H]7O[C@H](CO)[C@@H](O)[C@H](O[C@@H]8OC[C@@H](O)[C@H](O)[C@H]8O)[C@H]7O[C@@H]7O[C@H](CO)[C@H](O)[C@H](O[C@@H]8O[C@H](CO)[C@@H](O)[C@H](O)[C@H]8O)[C@H]7O)[C@H](O)[C@H]6O)[C@H](O)C[C@]5(C)[C@H]4CC[C@]3(C)[C@H]1[C@@H]2C` [digitonin], the “Lysis of parasite membranes by the positive control” value in data set [1] is 100%.
Consider “CDRVCYIHPF (disulfide 1-5 (inferred)) [S-S restricted Ang II analog of Torres et al]”, for which, in data set [2] (ref 7 (Torres et al.)), the “Antiplasmodial activity vs sporozoites of P. gallinaceum, S-S restricted analog” value was 76%.
Consider “CVIPFC (disulfide 1-6 (inferred)) [Peptide 8]”, for which, in the data set on Plasmodium falciparum [3], the “Antiplasmodial activity vs P. falciparum (new ring formation%)” value was 3.5%.
Regarding “DDRKVYIHPF [VC-4, linear Ang II analog of Maciel et al]”, the “Biological activity (antiplasmodial)” value in the data set on Plasmodium is 64%.
As for “DRDVKYIHPF (also: sidechain bridge or staple (positions not given here)) [VC-5, restricted (lactam bridge) Ang II analog of Maciel et al]”, the “Biological activity (antiplasmodial)” value with Plasmodium was 78%.
Turning to “DRVYHIPF [linear Ang II derivative of Silva et al., linear counterpart of peptide 2]”, the “Antiplasmodial activity against P. gallinaceum sporozoites, linear peptides” value in data set [2] is reported as 94%.
Turning to “EDRKVYIHPF (also: sidechain bridge or staple (positions not given here)) [lactam bridge Ang II analog of Torres et al]”, the “Antiplasmodial activity relative to Ang II (in words)” value with Plasmodium is reported as “maintained the antiplasmodial activity of Ang II”.
In the case of “EDRVOYIHPF (sidechain bridge or staple) [lactam bridge Ang II analog of Torres et al]”, the “Antiplasmodial activity relative to Ang II (in words)” value in the data set with Plasmodium is given as “maintained the antiplasmodial activity of Ang II”.
Regarding “VIPF [short linear Ang II derivative of Silva et al]”, the “Activity against erythrocyte invasion by P. falciparum, linear peptides” value in the data set with Plasmodium falciparum [4] is reported as ~ 50%. Moreover, in data set [2], the “Antiplasmodial activity against P. gallinaceum sporozoites, linear peptides” value is given as 94%.
In the case of “YHPF [short linear Ang II derivative of Silva et al]”, the “Activity against erythrocyte invasion by P. falciparum, linear peptides” value with Plasmodium falciparum [4] is given as ~ 50%. Moreover, in data set [2], the “Antiplasmodial activity against P. gallinaceum sporozoites, linear peptides” value is listed as 89%.
